In patent US20250332170A1, “VANDETANIB REDUCES INFLAMMATORY CYTOKINES AND AMELIORATES COVID-19” (Collaborations Pharmaceuticals, Inc., priority 2021, published 2025):
“Also recorded” adds a separate entry of the source. Like-named read-outs stand apart in the source and are kept apart here.

Key:
[1] = tested on: murine hepatitis virus (MHV); assay: microbe, parasite or virus in culture; format: cell-based
[2] = tested on: SARS-CoV-2; assay: microbe, parasite or virus in culture; format: cell-based; details: Severe acute respiratory syndrome coronavirus 2, A549-ACE2
[3] = tested on: SARS-CoV-2 (isolate USA WA1/2020)
[4] = tested on: VEGF; details: by day 28, severe COVID-19; cited from earlier work
[5] = Cytotoxicity in Caco-2 cells (CC50); format: cell-based; details: human
[6] = tested on: HCoV 229E; assay: HCoV 229E antiviral assay in Huh-7 cells; format: cell-based, human coronavirus 229E; details: 5 μM
[7] = in vivo; cited from earlier work
[8] = tested on: SARS-CoV-2; parameters: species or system K18-hACE2 mice; details: mouse, in vivo

VEGF, sequence (P15692 207-311 limits assumed): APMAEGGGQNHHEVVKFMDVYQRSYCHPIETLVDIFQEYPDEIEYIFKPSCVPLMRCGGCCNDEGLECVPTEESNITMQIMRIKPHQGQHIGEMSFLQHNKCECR

C=CC(=O)Nc1cc(Nc2nccc(-c3cn(C)c4ccccc34)n2)c(OC)cc1N(C)CCN(C)C [Osimertinib]
inhibition at 10 µM ([1]; Murine coronavirus, DBT cells): 98%

O=C(c1ccc(F)c(F)c1Nc1ccc(I)cc1F)N1CC(O)([C@@H]2CCCCN2)C1 [Cobimetinib]
inhibition at 10 µM ([1]; Murine coronavirus, DBT cells): 82%

CO[C@H]1C[C@@H]2CC[C@@H](C)[C@@](O)(O2)C(=O)C(=O)N2CCCC[C@H]2C(=O)O[C@H]([C@H](C)C[C@@H]2CC[C@@H](OCCO)[C@H](OC)C2)CC(=O)[C@H](C)/C=C(\C)[C@@H](O)[C@@H](OC)C(=O)[C@H](C)C[C@H](C)/C=C/C=C/C=C/1C [Everolimus]
inhibition at 10 µM ([1]; Murine coronavirus, DBT cells): 46%

CCN(CC)CCNC(=O)c1c(C)[nH]c(/C=C2\C(=O)Nc3ccc(F)cc32)c1C [Sunitinib]
inhibition at 10 µM ([1]; Murine coronavirus, DBT cells): 96%

CN(C)C(=O)c1cc2cnc(Nc3ccc(N4CCNCC4)cn3)nc2n1C1CCCC1 [Ribociclib]
inhibition at 10 µM ([1]; Murine coronavirus, DBT cells): -4%

CC[C@H](Nc1ncnc2nc[nH]c12)c1nc2cccc(F)c2c(=O)n1-c1ccccc1 [Idelalisib]
inhibition at 10 µM ([1]; Murine coronavirus, DBT cells): 17%

COc1cc(N2CCC(N3CCN(C)CC3)CC2)ccc1Nc1ncc(Cl)c(Nc2ccccc2P(C)(C)=O)n1 [Brigatinib]
inhibition at 10 µM ([1]; Murine coronavirus, DBT cells): 39%

CNC(=O)c1cc(Oc2ccc(NC(=O)Nc3ccc(Cl)c(C(F)(F)F)c3)cc2)ccn1 [Sorafenib]
inhibition at 10 µM ([1]; Murine coronavirus, DBT cells): 74%

CCC(CC)COC(=O)[C@H](C)N[P@](=O)(OC[C@H]1O[C@@](C#N)(c2ccc3c(N)ncnn23)[C@H](O)[C@@H]1O)Oc1ccccc1 [remdesivir]
IC50 [2]: 110 nM

CN(C)C/C=C/C(=O)Nc1cc2c(Nc3ccc(F)c(Cl)c3)ncnc2cc1O[C@H]1CCOC1 [Afatinib]
inhibition at 10 µM ([1]; Murine coronavirus, DBT cells): 98%

Cc1cn(-c2cc(NC(=O)c3ccc(C)c(Nc4nccc(-c5cccnc5)n4)c3)cc(C(F)(F)F)c2)cn1 [Nilotinib]
inhibition at 10 µM ([1]; Murine coronavirus, DBT cells): 66%

Cc1nc(Nc2ncc(C(=O)Nc3c(C)cccc3Cl)s2)cc(N2CCN(CCO)CC2)n1 [Dasatinib]
inhibition at 10 µM ([1]; Murine coronavirus, DBT cells): 65%

COC(=O)c1ccc2c(c1)NC(=O)/C2=C(\Nc1ccc(N(C)C(=O)CN2CCN(C)CC2)cc1)c1ccccc1 [Nintedanib]
inhibition at 10 µM ([1]; Murine coronavirus, DBT cells): 95%

Cc1ccc(C(=O)Nc2ccc(CN3CCN(C)CC3)c(C(F)(F)F)c2)cc1C#Cc1cnc2cccnn12 [Ponatinib]
inhibition at 10 µM ([1]; Murine coronavirus, DBT cells): 98%

CNC(=O)c1cc(Oc2ccc(NC(=O)Nc3ccc(Cl)c(C(F)(F)F)c3)c(F)c2)ccn1 [Regorafenib]
inhibition at 10 µM ([1]; Murine coronavirus, DBT cells): 65%

Crizotinib
Calu-3 result (toxicity) [3]: toxic
% Inhibition MHV-DBT cells 10 μM [1]: 96%

COc1cc2nccc(Oc3ccc(NC(=O)C4(C(=O)Nc5ccc(F)cc5)CC4)cc3)c2cc1OC [Cabozantinib]
inhibition at 10 µM ([1]; Murine coronavirus, DBT cells): 61%

Cc1ncc(NC(=O)c2ccc(CN3CCN(C)CC3)c(C(F)(F)F)c2)cc1Nc1nccc(-c2cccnc2)n1 [Flumatinib]
inhibition at 10 µM ([1]; Murine coronavirus, DBT cells): 83%

CS(=O)(=O)CCNCc1ccc(-c2ccc3ncnc(Nc4ccc(OCc5cccc(F)c5)c(Cl)c4)c3c2)o1 [Lapatinib]
inhibition at 10 µM ([1]; Murine coronavirus, DBT cells): 88%

N#CC[C@H](C1CCCC1)n1cc(-c2ncnc3[nH]ccc23)cn1 [Ruxolitinib]
inhibition at 10 µM ([1]; Murine coronavirus, DBT cells): -46%

C[C@@H]1CCN(C(=O)CC#N)C[C@@H]1N(C)c1ncnc2[nH]ccc12 [Tofacitinib]
inhibition at 10 µM ([1]; Murine coronavirus, DBT cells): -7%

C[C@]1(O)C[C@@H](c2nc(-c3ccc4ccc(-c5ccccc5)nc4c3)c3c(N)nccn32)C1 [Linsitinib]
inhibition at 10 µM ([1]; Murine coronavirus, DBT cells): 46%

CCS(=O)(=O)N1CCN(c2ccc(Nc3ncc(C(N)=O)c(NC4CC4)n3)cc2)CC1 [Cerdulatinib]
inhibition at 10 µM ([1]; Murine coronavirus, DBT cells): 78%

CC(=O)c1c(C)c2cnc(Nc3ccc(N4CCNCC4)cn3)nc2n(C2CCCC2)c1=O [Palbociclib]
inhibition at 10 µM ([1]; Murine coronavirus, DBT cells): 5%

CC(C)(C)c1nc(-c2cccc(NS(=O)(=O)c3c(F)cccc3F)c2F)c(-c2ccnc(N)n2)s1 [Dabrafenib]
inhibition at 10 µM ([1]; Murine coronavirus, DBT cells): -12%

bevacizumab
Patients discharged [4]: 65%
Patients with improvement in oxygen-support status [4]: 92%
Patients with worsened oxygen-support status or died [4]: none

CCc1cc2c(cc1N1CCC(N3CCOCC3)CC1)C(C)(C)c1[nH]c3cc(C#N)ccc3c1C2=O [Alectinib]
inhibition at 10 µM ([1]; Murine coronavirus, DBT cells): 62%

Alisertib
% Inhibition MHV-DBT cells 10 μM [1]: 19%

Cc1ccc(Nc2nccc(N(C)c3ccc4c(C)n(C)nc4c3)n2)cc1S(N)(=O)=O [Pazopanib]
inhibition at 10 µM ([1]; Murine coronavirus, DBT cells): 20%

CCCS(=O)(=O)Nc1ccc(F)c(C(=O)c2c[nH]c3ncc(-c4ccc(Cl)cc4)cc23)c1F [Vemourafenib]
inhibition at 10 µM ([1]; Murine coronavirus, DBT cells): -3%

CN1CCN(c2ccc(C(=O)Nc3n[nH]c4ccc(Cc5cc(F)cc(F)c5)cc34)c(NC3CCOCC3)c2)CC1 [Entrectinib]
IC50 [2]: 1970 nM
CC50 [5]: 3600 nM
Reduction of HCoV-229E titer [6]: 2.7 logTCID50/mL
inhibition at 10 µM ([1]; Murine coronavirus, DBT cells): 97%

CO[C@H]1C[C@@H]2CC[C@@H](C)[C@@](O)(O2)C(=O)C(=O)N2CCCC[C@H]2C(=O)O[C@H]([C@H](C)C[C@@H]2CC[C@@H](OC(=O)C(C)(CO)CO)[C@H](OC)C2)CC(=O)[C@H](C)/C=C(\C)[C@@H](O)[C@@H](OC)C(=O)[C@H](C)C[C@H](C)/C=C/C=C/C=C/1C [Temsirolimus]
inhibition at 10 µM ([1]; Murine coronavirus, DBT cells): 4%

CNCc1ccc(-c2[nH]c3cc(F)cc4c3c2CCNC4=O)cc1 [Rucaparib]
inhibition at 10 µM ([1]; Murine coronavirus, DBT cells): -48%

CC(=O)Nc1cccc(-n2c(=O)n(C3CC3)c(=O)c3c(Nc4ccc(I)cc4F)n(C)c(=O)c(C)c32)c1 [Trametinib]
inhibition at 10 µM ([1]; Murine coronavirus, DBT cells): -40%

COc1cc2nccc(Oc3ccc(NC(=O)Nc4cc(C)on4)c(Cl)c3)c2cc1OC [Tivozanib]
inhibition at 10 µM ([1]; Murine coronavirus, DBT cells): 29%

Cc1ccc(NC(=O)c2ccc(CN3CCN(C)CC3)cc2)cc1Nc1nccc(-c2cccnc2)n1 [Imatinib]
inhibition at 10 µM ([1]; Murine coronavirus, DBT cells): 81%

COc1cc2nccc(Oc3ccc(NC(=O)NC4CC4)c(Cl)c3)c2cc1C(N)=O [Lonvatinib]
inhibition at 10 µM ([1]; Murine coronavirus, DBT cells): -12%

Cc1cc(Nc2ncc(Cl)c(Nc3ccccc3S(=O)(=O)C(C)C)n2)c(OC(C)C)cc1C1CCNCC1 [Ceritinib]
inhibition at 10 µM ([1]; Murine coronavirus, DBT cells): 94%

CNC(=O)c1ccc(Nc2ncc(C(F)(F)F)c(NCc3nccnc3N(C)S(C)(=O)=O)n2)cc1 [Defactinib]
inhibition at 10 µM ([1]; Murine coronavirus, DBT cells): 36%

C=CC(=O)N1CCC[C@@H](n2nc(-c3ccc(Oc4ccccc4)cc3)c3c(N)ncnc32)C1 [Ibrutinib]
inhibition at 10 µM ([1]; Murine coronavirus, DBT cells): -69%

COc1cc2c(Nc3ccc(Br)cc3F)ncnc2cc1OCC1CCN(C)CC1 [Vandetanib]
IC50 [2]: 790 nM
CC50 [5]: 4100 nM
Absorption from the gut [7]: well absorbed
Average half-life [7]: 19 days
Excreted via the feces [7]: 44%
Excreted via the urine [7]: 25%
Protein-bound [7]: 92-94%
Terminal excretion half-life [7]: 20 days
Time to peak blood plasma concentrations [7]: 4 to 10 h
Reduction of HCoV-229E titer [6]: > 3
inhibition at 10 µM ([1]; Murine coronavirus, DBT cells): 97%
IC50 ([1]; Murine coronavirus, DBT cells, FIG. 5, read-out: IC50 against MHV): 1600 nM
Lung CCL2 level [8]: significantly reduced; also recorded: decreased
Lung CCL3 level [8]: significantly reduced; also recorded: decreased
Lung CCL4 level [8]: reduced; also recorded: decreased
Lung IL-6 level [8]: statistically significantly reduced
Lung IL-10 level [8]: statistically significantly reduced
Lung TNF-α level [8]: statistically significantly reduced
Lung pathology / inflammatory cell infiltrates [8]: mitigated inflammatory cell infiltrates
Lung viral load (viral RNA, RT-PCR) [8]: did not reduce
Lung IFN-1β level ([8]; listed as vandetanib): restored the levels; also recorded: rescued
Lung IL-6 level ([8]; listed as vandetanib): reduces
Lung IL-10 level ([8]; listed as vandetanib): reduces
Lung TNF-α level ([8]; listed as vandetanib): reduces
Lung pathology / inflammatory cell infiltrates ([8]; listed as vandetanib): clear protective effect; also recorded: significant treatment effect with mild infiltration
Lung viral load (viral RNA, RT-PCR) ([8]; listed as vandetanib): no significant reduction; also recorded: not observed

C#Cc1cccc(Nc2ncnc3cc(OCCOC)c(OCCOC)cc23)c1 [Erlotinib]
inhibition at 10 µM ([1]; Murine coronavirus, DBT cells): 32%

Cc1cccc(-c2nn3c(c2-c2ccnc4ccc(C(N)=O)cc24)CCC3)n1 [Galunisertib]
inhibition at 10 µM ([1]; Murine coronavirus, DBT cells): 26%
